Tests used:
[1] = biological target: T1, Patatin-like phospholipase domain-containing protein 2 (Mus musculus, UniProt Q8BJ56); assay: Inhibition of murine ATGL expressed in COS-7 cells; format: cell-based
T1 sequence (Q8BJ56 whole entry): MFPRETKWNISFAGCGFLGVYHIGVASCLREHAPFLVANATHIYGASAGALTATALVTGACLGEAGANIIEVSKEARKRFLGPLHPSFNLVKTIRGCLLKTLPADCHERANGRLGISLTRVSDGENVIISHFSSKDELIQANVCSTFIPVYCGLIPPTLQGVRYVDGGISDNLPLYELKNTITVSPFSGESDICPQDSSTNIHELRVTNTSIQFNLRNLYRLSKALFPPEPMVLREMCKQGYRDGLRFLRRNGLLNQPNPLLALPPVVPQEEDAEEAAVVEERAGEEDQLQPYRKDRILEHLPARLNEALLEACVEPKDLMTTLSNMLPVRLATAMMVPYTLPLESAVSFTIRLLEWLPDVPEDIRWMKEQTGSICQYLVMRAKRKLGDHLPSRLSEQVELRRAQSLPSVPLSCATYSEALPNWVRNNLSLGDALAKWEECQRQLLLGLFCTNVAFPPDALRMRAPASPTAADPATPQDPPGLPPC

[2] = biological target: T2, Patatin-like phospholipase domain-containing protein 2 (Mus musculus) (UniProt Q8BJ56); assay: Inhibition of murine ATGL expressed in COS-7 cells at 200 uM relative to control; format: cell-based
T2 sequence (whole entry): T1 sequence (Q8BJ56 whole entry)

[3] = In vivo inhibition of ATGL in mouse assessed as decrease in plasma fatty acid release at 200 uM, ip measured up to 8 hrs; format: functional; conditions: time hrs <=8
[4] = Inhibition of isoproterenol-stimulated lipolysis in ATGL-ko mouse at 200 uM, ip after 2 hrs; format: functional

IC50 [1]: 40 µM | inhibition [2]: 87%
Compound: CCOC(=O)c1cccc(-c2ccc(N(C)C)cc2)c1
inhibition in vivo at 200 µM [3]: 40% | inhibition in vivo at 200 µM [4]: 60%
